From USRE48461E1, “Modulation of androgen receptor expression” (Ionis Pharmaceuticals, Inc., priority 2012, dated 2021)
Oligonucleotides are written 5' to 3', each unit as a sugar letter and its base; * is a phosphorothioate linkage, no mark a phosphodiester; rarer units and linkages stand in square brackets, end groups in braces. Plain capitals give the bases only. e = 2'-O-(2-methoxyethyl) (MOE); k = constrained ethyl (cEt); [5mC] = 5-methylcytosine; d = 2'-deoxy (DNA)

Assays:
[1] = test system: AR mRNA; experiment: Dose-dependent antisense inhibition of human AR in HuVEC cells (electroporation, qRT-PCR RTS3559, IC50); type: cell-based; details: HuVEC, ~16 h
Method: (§1) After a treatment period of approximately 16 hours, RNA was isolated from the cells and AR mRNA levels were measured by quantitative real-time PCR. Human AR primer probe set RTS3559 was used to measure mRNA levels. AR mRNA levels were adjusted according to total RNA content, as measured by RIBOGREEN®. […] The antisense oligonucleotides were tested in a series of experiments that had similar culture conditions.
as §1, §1, §1, §1
(§2) After a treatment period of approximately 16 hours, RNA was isolated from the cells and AR mRNA levels were measured by quantitative real-time PCR. Human AR primer probe set RTS3559 was used to measure mRNA levels. AR mRNA levels were adjusted according to total RNA content, as measured by RIBOGREEN®.
as §2

[2] = test system: AR mRNA; experiment: Antisense inhibition of human AR in HuVEC cells, single concentration (electroporation, qRT-PCR RTS3559); type: cell-based; details: 1,000 nM ASO, ~24 h, Table 13
Method: Antisense oligonucleotides were designed targeting an AR nucleic acid and were tested for their effects on AR mRNA in vitro. The antisense oligonucleotides were tested in a series of experiments that had similar culture conditions. […] Human primer probe set RTS3559 (forward sequence [NT], designated herein as SEQ ID NO: 9; reverse sequence [NT], designated herein as SEQ ID NO: 10; probe sequence [NT], designated herein as SEQ ID NO: 11) was used to measure mRNA levels. AR mRNA levels were adjusted according to total RNA content, as measured by RIBOGREEN®. […] A total of 155 oligonucleotides were tested. Additional antisense oligonucleotides were designed targeting an AR nucleic acid and were tested for their effects on AR mRNA in vitro. […] Human primer probe set RTS3559 was used to measure mRNA levels. AR mRNA levels were adjusted according to total RNA content, as measured by RIBOGREEN®. […] A total of 82 oligonucleotides were tested. Additional antisense oligonucleotides were designed targeting an AR nucleic acid and were tested for their effects on AR mRNA in vitro. […] Human primer probe set RTS3559 was used to measure mRNA levels. AR mRNA levels were adjusted according to total RNA content, as measured by RIBOGREEN®. […] A total of 40 oligonucleotides were tested. Additional antisense oligonucleotides were designed targeting an AR nucleic acid and were tested for their effects on AR mRNA in vitro. […] Human primer probe set RTS3559 was used to measure mRNA levels. AR mRNA levels were adjusted according to total RNA content, as measured by RIBOGREEN®. […] A total of 75 oligonucleotides were tested. Additional antisense oligonucleotides were designed targeting an AR nucleic acid and were tested for their effects on AR mRNA in vitro. […] Human primer probe set RTS3559 was used to measure mRNA levels. AR mRNA levels were adjusted according to total RNA content, as measured by RIBOGREEN®. […] A total of 616 oligonucleotides were tested. Additional antisense oligonucleotides were designed targeting an AR nucleic acid and were tested for their effects on AR mRNA in vitro. […] Human primer probe set RTS3559 was used to measure mRNA levels. AR mRNA levels were adjusted according to total RNA content, as measured by RIBOGREEN®. […] A total of 385 oligonucleotides were tested.

569217 (antisense eG*kT*kT*kG*dA*dT*dT*dT*dA*dA*dT*dG*kG*kT*kT*eG) [compound 569217]
percent inhibition of AR ([1]; 62.5 nM, Table 12): 34% | percent inhibition of AR ([1]; 125.0 nM, Table 12): 39% | percent inhibition of AR ([1]; 500.0 nM, Table 12): 64% | percent inhibition of AR ([1]; 1000.0 nM, Table 12): 64% | IC50 ([1]; Table 12): 0.247 µM

579669 (antisense eG*kG*kT*eT*eG*kA*kT*dT*dT*dA*dA*dT*dG*dG*kT*kT) [compound 579669]
percent inhibition of AR ([1]; 62.5 nM, Table 11): 24% | percent inhibition of AR ([1]; 125.0 nM, Table 11): 39% | percent inhibition of AR ([1]; 500.0 nM, Table 11): 74% | percent inhibition of AR ([1]; 1000.0 nM, Table 11): 91% | IC50 ([1]; Table 11): 0.207 µM

579670 (antisense eT*kG*kA*eT*kT*kT*dA*dA*dT*dG*dG*dT*dT*kG*k[5mC]*kA) [compound 579670]
percent inhibition of AR ([1]; 62.5 nM, Table 11): 27% | percent inhibition of AR ([1]; 125.0 nM, Table 11): 28% | percent inhibition of AR ([1]; 500.0 nM, Table 11): 75% | percent inhibition of AR ([1]; 1000.0 nM, Table 11): 70% | IC50 ([1]; Table 11): 0.236 µM

579672 (antisense eG*kT*kT*eG*kA*kT*dT*dT*dA*dA*dT*dG*dG*kT*kT*kG) [compound 579672]
percent inhibition of AR ([1]; 62.5 nM, Table 11): 9% | percent inhibition of AR ([1]; 125.0 nM, Table 11): 30% | percent inhibition of AR ([1]; 500.0 nM, Table 11): 72% | percent inhibition of AR ([1]; 1000.0 nM, Table 11): 86% | IC50 ([1]; Table 11): 0.258 µM

585233 (kA*kG*kT*dT*dG*dT*dA*dG*dT*dA*dG*kT*e[5mC]*eG*e[5mC]*eG) [compound 585233]
% inhibition [2]: 69%

585259 (eA*kA*kG*kT*dT*dG*dT*dA*dG*dT*dA*dG*dT*k[5mC]*kG*k[5mC]) [compound 585259]
% inhibition [2]: 71%

585262 (kA*kA*kG*dT*dT*dG*dT*dA*dG*dT*dA*dG*kT*k[5mC]*kG*e[5mC]) [compound 585262]
% inhibition [2]: 77%

585263 (kA*kA*kG*dT*dT*dG*dT*dA*dG*dT*dA*kG*kT*k[5mC]*eG*e[5mC]) [compound 585263]
% inhibition [2]: 69%

585264 (kA*kA*kG*dT*dT*dG*dT*dA*dG*dT*kA*kG*kT*e[5mC]*eG*e[5mC]) [compound 585264]
% inhibition [2]: 62%

585265 (eA*eA*kG*kT*dT*dG*dT*dA*dG*dT*dA*dG*kT*k[5mC]*eG*e[5mC]) [compound 585265]
% inhibition [2]: 69%

585268 (kA*eA*kG*eT*dT*dG*dT*dA*dG*dT*dA*dG*eT*k[5mC]*eG*k[5mC]) [compound 585268]
% inhibition [2]: 72%

585269 (eA*kA*eG*kT*dT*dG*dT*dA*dG*dT*dA*dG*eT*k[5mC]*eG*k[5mC]) [compound 585269]
% inhibition [2]: 73%

585271 (eA*kA*kG*dT*dT*dG*dT*dA*dG*dT*dA*dG*dT*k[5mC]*kG*e[5mC]) [compound 585271]
% inhibition [2]: 57%

585274 (kA*kA*kG*dT*dT*dG*dT*dA*dG*dT*dA*dG*dT*k[5mC]*kG*e[5mC]) [compound 585274]
% inhibition [2]: 65%
